Source: patent US20040147562A1, “Methods of treating conditions associated with an EDG-1 receptor” (priority 2002, published 2004)
Where two headings read alike, the source gives them in different places. Values belong to the molecule of their own block, whether it stands above or below them.

Legend:
human Edg-1 receptors [1] = experiment: Intracellular calcium (FLIPR) assay, HTC cells expressing Edg-1; format: cell-based; details: Edg-1 relative to other Edg receptors, inhibition (Table 2)
Experimental: (§1) The compounds were tested in HTC cells expressing human Edg-1 receptors. […] The compounds were tested in this recombinant system first, and subsequently tested in cell lines expressing Edg-1 (in addition to other Edg receptors).
(§2) […] receptors such as Edg-1, couple to calcium effector pathways, and result in increases in intracellular calcium following receptor activation (An, 1998, J. Cell Biochem. Supp 30-31:147-157). This biological response lends itself to a very efficient, high-throughput screen using a Fluorescence Imaging Plate Reader (FLIPR; Molecular Devices, Sunnyvale, Calif.). The FLIPR system is a real-time, cell-based assay system with continuous fluorescence detection using a cooled CCD camera. The FLIPR system was used to develop an Edg-1 receptor screen. Rat hepatoma cells stably expressing Edg-1/3i3 chimera or Edg-1 and Gqi were plated on 384-well plates and loaded with a calcium dye loading kit (Molecular Devices, Sunnyvale, Calif.) for 1 hour at room temperature. Cells were then placed on the FLIPR^384 (Molecular Devices, Sunnyvale, Calif.) and excited by an argon laser at 488 nm. The data for the entire 384-well plate was updated every second. An integrated robotic pipettor allowed for simultaneous compound addition into each individual well in the plate.

Edg-2 = molecular target: T1, Edg-2 (Homo sapiens, UniProt Q92633); experiment: Intracellular calcium (FLIPR) assay, HTC cells expressing Edg-2; format: cell-based; details: Table 2; LPA-stimulated
T1 construct: expressed in transfected cells; host or cells: HTC rat hepatoma cells
T1 sequence (Q92633 whole entry): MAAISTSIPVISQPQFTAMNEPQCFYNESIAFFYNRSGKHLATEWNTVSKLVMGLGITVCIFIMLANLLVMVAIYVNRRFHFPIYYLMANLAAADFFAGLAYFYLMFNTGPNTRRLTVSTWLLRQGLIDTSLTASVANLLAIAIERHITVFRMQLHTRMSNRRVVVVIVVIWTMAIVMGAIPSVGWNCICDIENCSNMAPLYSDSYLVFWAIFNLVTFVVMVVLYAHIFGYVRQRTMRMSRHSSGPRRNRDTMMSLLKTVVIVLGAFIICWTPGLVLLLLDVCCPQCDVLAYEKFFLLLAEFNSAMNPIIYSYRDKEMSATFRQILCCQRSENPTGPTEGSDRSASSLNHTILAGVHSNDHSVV

Edg-3 = molecular target: T2, Edg-3 (Homo sapiens, UniProt Q99500); experiment: Intracellular calcium (FLIPR) assay, HTC cells expressing Edg-3; format: cell-based; details: Table 2; S1P-stimulated
T2 construct: expressed in transfected cells; host or cells: HTC rat hepatoma cells
T2 sequence (Q99500 whole entry): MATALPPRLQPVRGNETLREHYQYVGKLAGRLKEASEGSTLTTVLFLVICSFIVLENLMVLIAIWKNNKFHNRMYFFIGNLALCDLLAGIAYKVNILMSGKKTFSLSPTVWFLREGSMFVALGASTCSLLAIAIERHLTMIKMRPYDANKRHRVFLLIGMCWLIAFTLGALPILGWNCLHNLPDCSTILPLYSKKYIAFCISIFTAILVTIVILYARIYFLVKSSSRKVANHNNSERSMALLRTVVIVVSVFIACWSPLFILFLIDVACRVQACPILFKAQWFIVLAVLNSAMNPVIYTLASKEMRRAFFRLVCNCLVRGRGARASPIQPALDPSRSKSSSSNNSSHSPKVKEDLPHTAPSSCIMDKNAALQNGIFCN

Edg-4 = Edg-4 (Homo sapiens, UniProt Q9HBW0); experiment: Intracellular calcium (FLIPR) assay, HTC cells expressing Edg-4; format: cell-based; details: Table 2; LPA-stimulated
Edg-4, sequence (Q9HBW0 1-340 limits assumed): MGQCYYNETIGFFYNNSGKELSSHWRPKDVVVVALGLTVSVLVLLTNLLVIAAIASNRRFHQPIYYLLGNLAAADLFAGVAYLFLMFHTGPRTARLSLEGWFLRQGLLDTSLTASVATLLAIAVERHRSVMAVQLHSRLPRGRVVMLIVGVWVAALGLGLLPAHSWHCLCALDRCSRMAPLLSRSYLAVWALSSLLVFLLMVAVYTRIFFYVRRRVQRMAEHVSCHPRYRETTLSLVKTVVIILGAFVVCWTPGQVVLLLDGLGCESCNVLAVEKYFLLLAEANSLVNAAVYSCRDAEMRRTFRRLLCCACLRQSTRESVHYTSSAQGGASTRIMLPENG

Edg-5 = molecular target: T3, Edg-5 (Homo sapiens, UniProt O95136); experiment: Intracellular calcium (FLIPR) assay, HTC cells expressing Edg-5; format: cell-based; details: Table 2; S1P-stimulated
T3 construct: expressed in transfected cells; host or cells: HTC rat hepatoma cells
T3 sequence (O95136 whole entry): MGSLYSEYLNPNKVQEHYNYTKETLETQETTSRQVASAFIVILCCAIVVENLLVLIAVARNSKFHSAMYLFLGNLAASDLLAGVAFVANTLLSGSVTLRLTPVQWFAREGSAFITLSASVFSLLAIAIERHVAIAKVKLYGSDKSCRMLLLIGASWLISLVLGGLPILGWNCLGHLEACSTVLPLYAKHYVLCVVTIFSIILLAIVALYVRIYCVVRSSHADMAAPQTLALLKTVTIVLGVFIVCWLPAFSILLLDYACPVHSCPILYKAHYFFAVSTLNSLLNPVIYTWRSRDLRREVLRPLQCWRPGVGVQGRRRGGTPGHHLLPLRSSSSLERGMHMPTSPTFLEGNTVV

Edg-6 = molecular target: T4, Edg-6 (Homo sapiens, UniProt O95977); experiment: Intracellular calcium (FLIPR) assay, HTC cells expressing Edg-6; format: cell-based; details: Table 2; S1P-stimulated
T4 construct: expressed in transfected cells; host or cells: HTC rat hepatoma cells
T4 sequence (O95977 1-384): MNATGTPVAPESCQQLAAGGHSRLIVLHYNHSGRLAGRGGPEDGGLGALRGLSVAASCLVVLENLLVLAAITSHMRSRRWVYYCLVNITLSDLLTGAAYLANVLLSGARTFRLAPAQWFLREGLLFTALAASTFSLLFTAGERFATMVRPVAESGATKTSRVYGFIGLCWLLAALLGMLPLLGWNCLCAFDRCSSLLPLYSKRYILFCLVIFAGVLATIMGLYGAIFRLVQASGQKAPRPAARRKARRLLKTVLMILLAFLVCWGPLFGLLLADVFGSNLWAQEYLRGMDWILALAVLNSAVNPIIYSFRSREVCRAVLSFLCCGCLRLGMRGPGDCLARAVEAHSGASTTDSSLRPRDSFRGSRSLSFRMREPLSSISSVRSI

Edg-7 = molecular target: T5, Edg-7 (Homo sapiens, UniProt Q9UBY5); experiment: Intracellular calcium (FLIPR) assay, HTC cells expressing Edg-7; format: cell-based; details: Table 2; LPA-stimulated
T5 construct: expressed in transfected cells; host or cells: HTC rat hepatoma cells
T5 sequence (Q9UBY5 1-353): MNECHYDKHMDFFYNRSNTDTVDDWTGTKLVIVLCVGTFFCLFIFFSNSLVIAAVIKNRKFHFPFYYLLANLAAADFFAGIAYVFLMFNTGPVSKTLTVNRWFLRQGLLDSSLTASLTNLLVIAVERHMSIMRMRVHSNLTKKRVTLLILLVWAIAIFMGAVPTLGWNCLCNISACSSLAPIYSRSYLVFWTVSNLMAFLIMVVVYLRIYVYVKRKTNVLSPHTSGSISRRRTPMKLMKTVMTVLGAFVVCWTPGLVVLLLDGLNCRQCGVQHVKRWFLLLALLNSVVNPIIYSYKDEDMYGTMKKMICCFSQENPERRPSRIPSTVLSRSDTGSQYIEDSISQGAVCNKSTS

Edg-8 = molecular target: T6, Edg-8 (Homo sapiens, UniProt Q9H228); experiment: Intracellular calcium (FLIPR) assay, HTC cells expressing Edg-8; format: cell-based; details: Table 2; S1P-stimulated
T6 construct: expressed in transfected cells; host or cells: HTC rat hepatoma cells
T6 sequence (Q9H228 whole entry): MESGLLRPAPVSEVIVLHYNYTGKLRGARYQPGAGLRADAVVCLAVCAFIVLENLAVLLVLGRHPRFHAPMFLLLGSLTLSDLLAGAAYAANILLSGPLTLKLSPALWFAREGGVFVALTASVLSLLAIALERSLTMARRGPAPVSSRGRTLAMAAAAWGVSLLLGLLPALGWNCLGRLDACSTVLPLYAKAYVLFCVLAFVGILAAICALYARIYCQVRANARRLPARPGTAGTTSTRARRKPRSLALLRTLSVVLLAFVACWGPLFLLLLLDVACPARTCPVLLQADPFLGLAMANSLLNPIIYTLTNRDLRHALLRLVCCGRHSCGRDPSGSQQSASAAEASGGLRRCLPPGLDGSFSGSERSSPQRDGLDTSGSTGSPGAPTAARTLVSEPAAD

human Edg-1 receptors [2] = molecular target: human Edg-1 receptors (Homo sapiens, UniProt P21453); experiment: Intracellular calcium (FLIPR) assay, HTC cells expressing Edg-1; format: cell-based; set-up: Edg 1 IC50 μM; fused on or other part: in the chimera reading: the third intracellular loop (i3) of Edg-3 (S1PR3) in place of Edg-1's own
Experimental: as §1, §2

[3] = system: human umbilical vein endothelial cells; experiment: Trans-matrigel chemotaxis / invasion assay with HUVECs (modified Boyden chamber); format: cell-based; details: HUVECs, trans-matrigel; FIG. 10
Experimental: In addition to Edg-1, other Edg receptors are also implicated in S1P stimulated chemotaxis, including Edg-3 and Edg-6. To assess the relative roles of the Edg-1 receptors and Edg-3 receptors in S1P stimulated chemotaxis, the ability of S1P to evoke trans-matrigel chemotaxis was tested in the presence of the Edg-1 antagonist 101, the Edg-3 antagonist 301, and the combination of 101 and 301. These experiments were performed according to the migration and invasion assay protocols described in Section 7.12, below. The Edg-3 antagonist 301, 3-Methyl-2-phenyl-quinoline-4-carboxylic acid 4-fluoro-benzylamide, is extensively described in co-pending U.S. application Ser. No. 10/390,426, which is incorporated by reference in its entirety. 301 is identified as compound 101 in U.S. application Ser. No. 10/390,426. Further, 301 is commercially available from Specs (The Netherlands) as compound number AK-968/12971392.
(§3) S1P is a strong chemoattractant to human PBMCs. […] Several migration assays were performed to test this hypothesis and to determine the effect of Edg-1 agonists and antagonists on S1P mediated chemotaxis. The migration assays were performed according to the protocol described in Section 7.12, below. The results of theses assays are presented in FIG. 6, FIG. 7, FIG. 8, FIG. 9 and FIG. 13.
(§4) Cells were plated in a 24 well format using Fluoroblok filter insert plates ([…] pore size) or Fluoroblok matrigel coated filter insert plates (Becton Dickinson, San Diego, Calif.). The assay was a modified Boyden Chamber assay in which a cell suspension (1×10^5 cells/ml) was prepared in serum free medium and added to the top chamber. LPA or S1P (doses ranged from 0.1-10 μM in serum free medium) was added to the bottom chamber. Following a 20-24 hour incubation period, the number of cells migrating or invading into the lower chamber was quantitated by transferring the filter insert into a fresh 24-well plate containing 4 μg/ml calcein AM (Molecular Probes, Sunnyvale, Calif.) in Hank's Balanced Salt Solution and staining for one hour.
(§5) Detection was via fluorescent readout at 450 nm excitation/530 nm emission using a fluorimeter. The level of fluorescence correlated with cell number.

[4] = system: human peripheral blood mononuclear cells; experiment: Migration of human peripheral blood mononuclear cells; format: cell-based; details: chemoattractant; FIG. 9, 13
Experimental: as §3, §4, §5
Human PBMCs are isolated from the buffy coats of healthy donors from the Stanford Blood Center. […]

murine CD4 T cells = experiment: Murine CD4 T cell chemotactic response to exodus-2; format: cell-based
Experimental: To assess this modulation and to test the effects of Edg-1 agonists and antagonists on this effect, murine CD4 T cells chemotactic responses to exodus-2 were tested in the presence of S1P and the Edg-1 agonist 104. These experiments were performed according to the migration and invasion assay protocols described in Section 7.12, below.
The effects of Edg-1 antagonists on S1P regulation of the chemotactic response to exodus-2 were also assessed. This experiment was performed according to the migration and invasion assay protocols described in Section 7.12, below. […] Thus, these Edg-1 antagonists can antagonize both aspects of the regulation by S1P of exodus-2-mediated chemotaxis.
as §4, §5

mouse T cells = experiment: Mouse T cell migration in Transwell chambers with matrigel; format: cell-based; details: stimulant in bottom chamber; S1P at high concentrations; FIG. 14
Experimental: To further elucidate the role of the Edg-1 receptor in lymphocyte trafficking, migration of mouse T cells was analyzed in both in vitro and in vivo models. Migration of mouse T cells was first tested in Transwell chambers (Costar, Cambridge, Mass.) with polycarbonate fibers having a pore width of 8 μm, separated by a layer of matrigel. Stimulants S1P or exodus-2 were separately added to the bottom chamber. The effects of exodus-2 were tested alone, with S1P, and with S1P and Edg-1 antagonists 101 and 102.

[5] = system: mouse splenic CD4 T cells; experiment: Lymphocyte migration in mouse dorsal air-pouch model; format: in vivo; details: CD4 T cells treated ex vivo, given intraperitoneally, lavage after 24 hours; S1P 1 μM; FIG. 15
Experimental: To test migration of mouse T cells in vivo, the ability of exodus-2 to attract mouse lymphocytes was assessed in the mouse dorsal air-pouch model. In these experiments, 0.5 ml 1 μM exodus-2 was introduced into a dorsal air-pouch produced by injecting 5 ml of filtered air subcutaneously. Mouse splenic CD4 T cells were fluorescently labeled with FM-DiI (Molecular Probes, Inc., Eugene, Oreg.), then treated with S1P (1 μM), 102, or 104. The treated CD4T cells were introduced into the peritoneal cavity. After 24 hours, lavage (1 ml) from the dorsal air pouch was assayed for fluorescence.

[6] = Table 1, Edg-1 modulators, read-out: IC50

- IC50 (Edg-2): > 20 µM
- IC50 (Edg-3): > 20 µM
- IC50 (Edg-4): > 20 µM
- IC50 (Edg-5): > 20 µM
- IC50 (Edg-6): > 20 µM
- IC50 (Edg-7): > 20 µM
- IC50 (Edg-8): > 20 µM
- IC50 (human Edg-1 receptors [2]; Table 2, inhibition of S1P response, read-out: Edg 1 IC50): 0.74 µM
Molecule: COc1cc2c(cc1OC)[C@H]1CN3CCc4cc(OC)c(OC)cc4[C@H]3CN1CC2 [Compound 103]
- Fold Selectivity (human Edg-1 receptors [1]): >27.0 Fold

- IC50 (human Edg-1 receptors [2]; [6]): 1.29 µM
Molecule: O=C(c1cccnc1)N1N=C(C(F)(F)F)CC1(O)c1ccc(Cl)cc1 (centres unmarked) [Compound 105]

- IC50 (human Edg-1 receptors [2]; [6]): 1.74 µM
Molecule: CCc1ccc(C2=NN(C(=O)c3cccnc3)C(O)(C(F)(F)F)C2)cc1 (centres unmarked) [Compound 106]

- IC50 (human Edg-1 receptors [2]; [6]): 3.51 µM
Molecule: O=C(c1cccnc1)N1N=C(c2ccccc2)CC1(O)C(F)(F)F (centres unmarked) [Compound 107]

- IC50 (human Edg-1 receptors [2]; [6]): 3.56 µM
Molecule: Nc1ccc(C(=O)N2N=C(c3ccccc3)CC2(O)C(F)(F)F)cc1 (centres unmarked) [Compound 108]

- IC50 (human Edg-1 receptors [2]; [6]): 3.94 µM
Molecule: Nc1ccc(C(=O)N2N=C(c3ccc(F)cc3)CC2(O)C(F)(F)F)cc1 (centres unmarked) [Compound 109]

- IC50 (human Edg-1 receptors [2]; [6]): 4.58 µM
Molecule: Nc1ccc(C(=O)N2N=C(C(F)(F)F)CC2(O)c2ccc(Br)cc2)cc1 (centres unmarked) [Compound 110]

- IC50 (human Edg-1 receptors [2]; [6]): 5.08 µM
Molecule: O=C(c1ccccc1)N1N=C(c2ccccc2)CC1(O)C(F)(F)F (centres unmarked) [Compound 111]

- IC50 (human Edg-1 receptors [2]; [6]): 5.92 µM
Molecule: O=C(c1cccnc1)N1N=C(c2ccc(F)cc2)CC1(O)C(F)(F)F (centres unmarked) [Compound 112]

- IC50 (human Edg-1 receptors [2]; [6]): 6.02 µM
Molecule: O=C(c1ccccc1F)N1N=C(C(F)(F)F)CC1(O)c1ccc(Cl)cc1 (centres unmarked) [Compound 113]

Molecule: Cc1c(-c2ccccc2)nc2ccccc2c1C(=O)NCc1ccc(F)cc1 [Compound 301, 3-Methyl-2-phenyl-quinoline-4-carboxylic acid 4-fluoro-benzylamide, reference compound]
- inhibition of S1P-stimulated chemotaxis [3]: inhibit S1P-stimulated chemotaxis

Molecule: CCCCCCCCCCCCC/C=C/[C@@H](O)[C@@H](N)COP(=O)(O)O [Compound S1P, sphingosine-1-phosphate, reference compound]
- migration of human peripheral blood mononuclear cells [4]: attracts human PMBCs in a dose dependent manner
- effect on chemotaxis of murine CD4 T cells to exodus-2 (murine CD4 T cells; low and high concentrations desensitize, moderate stimulate, FIG. 11): bell-shaped dose dependant response curve
- stimulation of T cell migration by stimulant alone (mouse T cells): do not stimulate T cell migration
- migration of treated lymphocytes to exodus-2 in dorsal air-pouch [5]: desensitizes the lymphocytes to attraction by exodus-2

Molecule: CCCCCCCCc1ccc(CCC(N)(CO)CO)cc1 [FTY720, reference compound]
- effect on S1P-mediated desensitization of the chemotactic response to exodus-2 (murine CD4 T cells; high concentrations of S1P, FIG. 12): reverse S1P-mediated desensitization
- effect on S1P-mediated stimulation of the chemotactic response to exodus-2 (murine CD4 T cells; moderate concentrations of S1P, FIG. 12): inhibit S1P-mediated stimulation

B1: exodus-2: cytokine, chemoattractant for lymphocytes (protein, UniProt O00585 24-134, looked up)
C-C motif chemokine 21: SDGGAQDCCLKYSQRKIPAKVVRSYRKQEPSLGCSIPAILFLPRKRSQAELCADPKELWVQQLMQHLDKTPSPQKPAQGCRKDRGASKTGKKGKGSKGCKRTERSQTPKGP
- stimulation of T cell migration by stimulant alone (mouse T cells): does stimulate T cell migration
